The target of this assay is T1, S1PR1 (Homo sapiens, UniProt P21453).
T1 construct: expressed in transfected cells
The experiment in a line: In vitro agonist activity on S1PR1 (PathHunter cell line, chemiluminescence). Type of assay: cell-based. As for the experimental part:
Test example 1: Evaluating the in vitro agonist activity of the compound of the present disclosure on S1PR1
Experimental purpose: To assess the agonist activity of the compound on S1PR1
I. Cell Treatment • 1. The PathHunter cell line was thawed according to standard procedures. • 2. The cells were seeded in a 384-well plate with a volume of 20 μL, and incubated at 37° C. for an appropriate duration.
II. Agonist • 1. For the agonist evaluation, the cells were co-cultured with the test samples to induce a reaction. • 2. The test stock solution was diluted 5-fold using the buffer. • 3. 5 μL of the 5-fold diluted solution was added to the cells, and incubated at 37° C. for 90 to 180 minutes. The vehicle concentration was maintained at 1%.
III. Signal Detection • 1. Either 12.5 μL or 15 μL of the PathHunter detection reagent (at a 50% v/v ratio) was added each time, followed by a 1-hour incubation at room temperature to allow for detection signal generation. • 2. Chemiluminescence signal detection was conducted using a PerkinElmer Envision™ microplate reader.
IV. Data Analysis • 1. The activity of the compound was analyzed using the CBIS suite for data analysis (ChemInnovation, CA). • 2. Formula for calculation:
% Activity=100%× (Average sample RLU—Average vehicle RLU)/(Average maximum control ligand RLU—Average vehicle RLU)

The values that follow come from patent US20240182457A1, “OXADIAZOLE-SUBSTITUTED SPIROCYCLIC COMPOUND AND APPLICATION THEREOF” (HELIOEAST PHARMACEUTICAL CO., LTD., priority 2021, published 2024).

As a reminder, the Emax is the size of the effect at its maximum, as opposed to the concentration needed. The term EC50 denotes the concentration needed to bring the measured effect to its halfway point. The low end stands for greater potency, the high end for weaker potency.

T1 sequence (P21453 whole entry): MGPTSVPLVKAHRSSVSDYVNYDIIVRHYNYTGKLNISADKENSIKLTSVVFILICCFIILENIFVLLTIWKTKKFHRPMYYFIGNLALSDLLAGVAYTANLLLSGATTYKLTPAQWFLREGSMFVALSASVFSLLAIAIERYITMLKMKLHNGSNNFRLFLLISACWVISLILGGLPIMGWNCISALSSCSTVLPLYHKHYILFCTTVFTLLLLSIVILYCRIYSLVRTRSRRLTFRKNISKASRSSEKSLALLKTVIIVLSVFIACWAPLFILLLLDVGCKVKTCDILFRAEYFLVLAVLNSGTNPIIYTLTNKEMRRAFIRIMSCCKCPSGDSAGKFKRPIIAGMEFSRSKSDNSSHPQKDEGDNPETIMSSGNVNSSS

Take `CC(C)Oc1cc(-c2nc(-c3cccc4c3CCC43CCN(C(C)(C)CO)C3)no2)ccc1C#N` (centres unmarked) [Compound 1]: the Emax (% Activity relative to maximum control ligand) was 110%. Further, the response (incubated at 37° C. for 90 to 180 minutes) was half-maximal at 0.657 nM (EC50).
